Literature values, collected in patent US10772837B2, “Modified release multi-layer tablet cannabinoid formulations” (CannTab Therapeutics, Limited, priority 2017, dated 2020).
Read-outs that look alike come from different tables or passages of the source.

How the values were obtained:
[1] = pure CBD, twice-daily dosages, paediatric patients; ranging from total seizure freedom to these reductions
[2] = for solubility: in water

SMILES	seizure reduction [1]	BCS class ([2]; NICHD/FDA Oral Formulations Platform Report 1)	solubility [2]	solubility ([2]; listed as dronabinol)
C=C(C)[C@@H]1CCC(C)=C[C@H]1c1c(O)cc(CCCCC)cc1O [CBD, cannabidiol]	25-80%	–	–	–
CCCCCc1cc(O)c2c(c1)OC(C)(C)[C@@H]1CCC(C)=C[C@@H]21 [Dronabinol, (−)-trans-Δ9-tetrahydrocannabinol]	–	class 2 or class 4	insoluble in water	low
